Results as given in PubChem BioAssay AID2060621 (Molecular Pharmacology Branch, DTP, NCI, 2025).
pIC50: −log10 of the molar value. “And” between values parts separate entries of the source, which are not always exact repeats. Identical values can stand only once.

Test system: 324938-238-R-J1-PDC complex spheroids viability
Assay: Anticancer human tumor 324938-238-R-J1-PDC patient-derived bladder carcinoma cell line growth inhibition [CLK]
Details: for viability, T/C: stronger effect = lower value
Summary of the method: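 Patient-derived tumor cells grown as complex spheroids with HUVEC endothelial cells and mesenchymal stem cells, treated with drug combinations. Concentrations descend in half-log steps from near clinical Cmax, or from 10 microM if Cmax unknown.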

[1] = curve of first compound, second compound 0.0316 µM
[2] = curve of first compound, second compound 0.1 µM
[3] = curve of first compound, second compound 0.316 µM
[4] = curve of first compound, second compound 1 µM
[5] = curve of first compound, second compound 3.16 µM
[6] = curve of first compound, second compound 10 µM
[7] = second compound 0.0316 µM, first compound 0.0316 µM
[8] = second compound 0.0316 µM, first compound 0.1 µM
[9] = second compound 0.0316 µM, first compound 0.316 µM
[10] = second compound 0.0316 µM, first compound 1 µM
[11] = second compound 0.1 µM, first compound 0.0316 µM
[12] = second compound 0.1 µM, first compound 0.1 µM
[13] = second compound 0.1 µM, first compound 0.316 µM
[14] = second compound 0.1 µM, first compound 1 µM
[15] = second compound 0.316 µM, first compound 0.0316 µM
[16] = second compound 0.316 µM, first compound 0.1 µM
[17] = second compound 0.316 µM, first compound 0.316 µM
[18] = second compound 0.316 µM, first compound 1 µM
[19] = second compound 1 µM, first compound 0.0316 µM
[20] = second compound 1 µM, first compound 0.1 µM
[21] = second compound 1 µM, first compound 0.316 µM
[22] = second compound 1 µM, first compound 1 µM
[23] = second compound 3.16 µM, first compound 0.0316 µM
[24] = second compound 3.16 µM, first compound 0.1 µM
[25] = second compound 3.16 µM, first compound 0.316 µM
[26] = second compound 3.16 µM, first compound 1 µM
[27] = second compound 10 µM, first compound 0.0316 µM
[28] = second compound 10 µM, first compound 0.1 µM
[29] = second compound 10 µM, first compound 0.316 µM
[30] = second compound 10 µM, first compound 1 µM
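Also: viability read after seven days of drug exposure.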
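For viability, T/C in this document: 100% = DMSO vehicle control wells.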

## CC(C)CC(NC(=O)C(Cc1ccccc1)NC(=O)c1cnccn1)B(O)O (centres undefined)
Compound 0.000949 µM
  viability, T/C: 63.7% and 55.5%
Compound 0.003 µM
  viability, T/C: 2.77% and 1.54%
Compound 0.00949 µM
  viability, T/C: 0.22% and 0.18%
Compound 0.03 µM
  viability, T/C: 0.44% and 0.2%
Compound 0.0949 µM
  viability, T/C: 0.18% and 0.12%
Compound 0.3 µM
  viability, T/C: 0.35% and 0.13%
Curve of compound
  pIC50: 8.91 and 8.97

## O=C(c1cc(Cc2n[nH]c(=O)c3ccccc23)ccc1F)N1CCN(C(=O)C2CC2)CC1 + CNC(=O)c1ccc(Nc2nc(OC3CCCC3)c3c(-c4ccc5nc(C)oc5c4)c[nH]c3n2)c(OC)c1
[1]
  pIC50: 5.37
[2]
  pIC50: > 7.50
[3]
  pIC50: > 7.50
[4]
  pIC50: > 7.50
[5]
  pIC50: > 7.50
[6]
  pIC50: > 7.50
[7]
  viability, T/C: 90.9%
[8]
  viability, T/C: 78.5%
[9]
  viability, T/C: 83.2%
[10]
  viability, T/C: 77.7%
Second compound 0.0316 µM, first compound 3.16 µM
  viability, T/C: 56.9%
Second compound 0.0316 µM, first compound 10 µM
  viability, T/C: 29.4%
[11]
  viability, T/C: 31.1%
[12]
  viability, T/C: 27.2%
[13]
  viability, T/C: 24.9%
[14]
  viability, T/C: 28%
Second compound 0.1 µM, first compound 3.16 µM
  viability, T/C: 30.4%
Second compound 0.1 µM, first compound 10 µM
  viability, T/C: 20.8%
[15]
  viability, T/C: 18.6%
[16]
  viability, T/C: 20.8%
[17]
  viability, T/C: 16.2%
[18]
  viability, T/C: 21.2%
Second compound 0.316 µM, first compound 3.16 µM
  viability, T/C: 19%
Second compound 0.316 µM, first compound 10 µM
  viability, T/C: 17.9%
[19]
  viability, T/C: 15.9%
[20]
  viability, T/C: 15.2%
[21]
  viability, T/C: 16.8%
[22]
  viability, T/C: 15.3%
Second compound 1 µM, first compound 3.16 µM
  viability, T/C: 17.7%
Second compound 1 µM, first compound 10 µM
  viability, T/C: 15.8%
[23]
  viability, T/C: 16.9%
[24]
  viability, T/C: 17.1%
[25]
  viability, T/C: 19.4%
[26]
  viability, T/C: 17.3%
Second compound 3.16 µM, first compound 3.16 µM
  viability, T/C: 15.5%
Second compound 3.16 µM, first compound 10 µM
  viability, T/C: 17.7%
[27]
  viability, T/C: 16.2%
[28]
  viability, T/C: 14.3%
[29]
  viability, T/C: 15.3%
[30]
  viability, T/C: 18.2%
Second compound 10 µM, first compound 3.16 µM
  viability, T/C: 16.1%
Second compound 10 µM, first compound 10 µM
  viability, T/C: 17.4%

## C=CC(=O)Nc1cc(Nc2nccc(-c3cn(C)c4ccccc34)n2)c(OC)cc1N(C)CCN(C)C + CN1CCN(c2cc(C(=O)Nc3cc4cc(-c5cnn(C)c5)ccc4cn3)ccn2)CC1
[1]
  pIC50: 7.16
[2]
  pIC50: 8.20
[3]
  pIC50: > 9.02
[4]
  pIC50: > 9.02
[5]
  pIC50: > 9.02
[6]
  pIC50: > 9.02
Second compound 0.0316 µM, first compound 0.000949 µM
  viability, T/C: 80%
Second compound 0.0316 µM, first compound 0.003 µM
  viability, T/C: 77.5%
Second compound 0.0316 µM, first compound 0.00949 µM
  viability, T/C: 69.7%
Second compound 0.0316 µM, first compound 0.03 µM
  viability, T/C: 66.3%
Second compound 0.0316 µM, first compound 0.0949 µM
  viability, T/C: 43.7%
Second compound 0.0316 µM, first compound 0.3 µM
  viability, T/C: 25.3%
Second compound 0.1 µM, first compound 0.000949 µM
  viability, T/C: 60.3%
Second compound 0.1 µM, first compound 0.003 µM
  viability, T/C: 48.5%
Second compound 0.1 µM, first compound 0.00949 µM
  viability, T/C: 51%
Second compound 0.1 µM, first compound 0.03 µM
  viability, T/C: 39%
Second compound 0.1 µM, first compound 0.0949 µM
  viability, T/C: 33%
Second compound 0.1 µM, first compound 0.3 µM
  viability, T/C: 19.1%
Second compound 0.316 µM, first compound 0.000949 µM
  viability, T/C: 19.7%
Second compound 0.316 µM, first compound 0.003 µM
  viability, T/C: 22.8%
Second compound 0.316 µM, first compound 0.00949 µM
  viability, T/C: 20.9%
Second compound 0.316 µM, first compound 0.03 µM
  viability, T/C: 21.8%
Second compound 0.316 µM, first compound 0.0949 µM
  viability, T/C: 17.1%
Second compound 0.316 µM, first compound 0.3 µM
  viability, T/C: 15.7%
Second compound 1 µM, first compound 0.000949 µM
  viability, T/C: 1.22%
Second compound 1 µM, first compound 0.003 µM
  viability, T/C: 1.22%
Second compound 1 µM, first compound 0.00949 µM
  viability, T/C: 1.43%
Second compound 1 µM, first compound 0.03 µM
  viability, T/C: 1.11%
Second compound 1 µM, first compound 0.0949 µM
  viability, T/C: 1.21%
Second compound 1 µM, first compound 0.3 µM
  viability, T/C: 0.28%
Second compound 3.16 µM, first compound 0.000949 µM
  viability, T/C: 0.13%
Second compound 3.16 µM, first compound 0.003 µM
  viability, T/C: 0.13%
Second compound 3.16 µM, first compound 0.00949 µM
  viability, T/C: 0.19%
Second compound 3.16 µM, first compound 0.03 µM
  viability, T/C: 0.14%
Second compound 3.16 µM, first compound 0.0949 µM
  viability, T/C: 0.11%
Second compound 3.16 µM, first compound 0.3 µM
  viability, T/C: 0.16%
Second compound 10 µM, first compound 0.000949 µM
  viability, T/C: 0.15%
Second compound 10 µM, first compound 0.003 µM
  viability, T/C: 0.16%
Second compound 10 µM, first compound 0.00949 µM
  viability, T/C: 0.21%
Second compound 10 µM, first compound 0.03 µM
  viability, T/C: 0.16%
Second compound 10 µM, first compound 0.0949 µM
  viability, T/C: 0.18%
Second compound 10 µM, first compound 0.3 µM
  viability, T/C: 0.21%

## COc1ccc([C@@H](O)c2cc(-c3ncnc4cc(N5CCOCC5)ccc34)c(F)cc2Cl)nn1
Compound 0.0316 µM
  viability, T/C: 78% and 79.6%
Compound 0.1 µM
  viability, T/C: 81% and 88.1%
Compound 0.316 µM
  viability, T/C: 68.9% and 55.6%
Compound 1 µM
  viability, T/C: 59.9% and 71%
Compound 3.16 µM
  viability, T/C: 52.4% and 50.7%
Compound 10 µM
  viability, T/C: 37.4% and 36.7%
Curve of compound
  pIC50: 5.48 and 5.45

## C=C(F)C(=O)N1CCN(c2nc(OCC3CCCN3C)nc3c2CCN(c2cccc4cccc(Cl)c24)C3)CC1CC#N (centres undefined)
Compound 0.0316 µM
  viability, T/C: 79.2% and 88%
Compound 0.1 µM
  viability, T/C: 88.8% and 85.7%
Compound 0.316 µM
  viability, T/C: 89.3% and 88%
Compound 1 µM
  viability, T/C: 85.3% and 92.6%
Compound 3.16 µM
  viability, T/C: 35.5% and 55.8%
Compound 10 µM
  viability, T/C: 0.27% and 1.96%
Curve of compound
  pIC50: 5.65 and 5.45

## Cn1ncnc1[C@H]1c2n[nH]c(=O)c3cc(F)cc(c23)N[C@@H]1c1ccc(F)cc1
Compound 0.000316 µM
  viability, T/C: 84.5% and 92.7%
Compound 0.001 µM
  viability, T/C: 78.8% and 76.2%
Compound 0.00316 µM
  viability, T/C: 60% and 68.3%
Compound 0.01 µM
  viability, T/C: 50% and 55.5%
Compound 0.0316 µM
  viability, T/C: 37.4% and 33.3%
Compound 0.1 µM
  viability, T/C: 28.4% and 24.7%
Curve of compound
  pIC50: 8.04 and 7.93

## CCN1CCN(Cc2ccc(Nc3ncc(F)c(-c4cc(F)c5nc(C)n(C(C)C)c5c4)n3)nc2)CC1 + CNC(=O)c1ccc(Nc2nc(OC3CCCC3)c3c(-c4ccc5nc(C)oc5c4)c[nH]c3n2)c(OC)c1
[1]
  pIC50: 7.06
[2]
  pIC50: > 8.50
[3]
  pIC50: > 8.50
[4]
  pIC50: > 8.50
[5]
  pIC50: > 8.50
[6]
  pIC50: > 8.50
Second compound 0.0316 µM, first compound 0.00316 µM
  viability, T/C: 75.9%
Second compound 0.0316 µM, first compound 0.01 µM
  viability, T/C: 77.3%
[7]
  viability, T/C: 57.8%
[8]
  viability, T/C: 49.9%
[9]
  viability, T/C: 42.8%
[10]
  viability, T/C: 36.6%
Second compound 0.1 µM, first compound 0.00316 µM
  viability, T/C: 32.2%
Second compound 0.1 µM, first compound 0.01 µM
  viability, T/C: 31.5%
[11]
  viability, T/C: 29.7%
[12]
  viability, T/C: 30.7%
[13]
  viability, T/C: 33.5%
[14]
  viability, T/C: 38.7%
Second compound 0.316 µM, first compound 0.00316 µM
  viability, T/C: 19.7%
Second compound 0.316 µM, first compound 0.01 µM
  viability, T/C: 17%
[15]
  viability, T/C: 19%
[16]
  viability, T/C: 22.7%
[17]
  viability, T/C: 30.5%
[18]
  viability, T/C: 33.3%
Second compound 1 µM, first compound 0.00316 µM
  viability, T/C: 18.5%
Second compound 1 µM, first compound 0.01 µM
  viability, T/C: 17.9%
[19]
  viability, T/C: 16.8%
[20]
  viability, T/C: 21.5%
[21]
  viability, T/C: 22.6%
[22]
  viability, T/C: 31.9%
Second compound 3.16 µM, first compound 0.00316 µM
  viability, T/C: 19%
Second compound 3.16 µM, first compound 0.01 µM
  viability, T/C: 18%
[23]
  viability, T/C: 16.1%
[24]
  viability, T/C: 20.6%
[25]
  viability, T/C: 29.9%
[26]
  viability, T/C: 30.5%
Second compound 10 µM, first compound 0.00316 µM
  viability, T/C: 16.4%
Second compound 10 µM, first compound 0.01 µM
  viability, T/C: 15.9%
[27]
  viability, T/C: 21.2%
[28]
  viability, T/C: 18.4%
[29]
  viability, T/C: 23%
[30]
  viability, T/C: 32.5%
